Test: gradient 5% acetonitrile 3 min, to 50% in 2 min, to 85% in 15 min, held 3 min, 100 µL/min
Conditions: column: Zorbax Extend-C18 2.1 x 50 mm; eluents: water / acetonitrile, 0.1% formic acid
In short: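 Each retention time is based on an adduct peak selected computationally and verified by manual inspection. Measurements used HPLC–quadrupole time-of-flight mass spectrometry in positive and negative ionization mode on mixtures of ~100 pure standards. Chromatography ran on a Zorbax Extend-C18 column (2.1 × 50 mm, 1.8 μm) at 100 μL/min with water and acetonitrile, each containing 0.1% formic acid, and dead and dwell volumes of 40 μL and 900 μL.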

Structure (SMILES) | RP-LC retention time [s]
COCCn1c(CCCC(=O)NC2CCCCCC2)nc2cccnc21 | 667
CCNC(=O)c1csc(N2CCCC(C)C2)n1 (stereo not given) | 928
Cc1cccc(NS(=O)(=O)c2cc(-c3[nH]ncc3C(=O)N3CCCCC3)oc2C)c1C | 822
CCN1CCCn2cc(S(=O)(=O)Nc3cccc(OC)c3)cc2C1=O | 698
COc1cc(OC)cc(-c2noc(Cn3c(=O)n(CC(C)C)c(=O)c4ccccc43)n2)c1 | 1160
O=C1CCN(C(=O)C2CCN(C(=O)C3CCCC3)CC2)CCCCCCN1 | 652
Cc1nn(C(C)C(=O)Nc2cc(F)ccc2F)c(=O)c2c(-n3cccc3)n(-c3ccccc3)nc12 (stereo not given) | 1130
COc1ccc(-c2ncccc2CNS(=O)(=O)c2ccc(C)cc2C)cc1 | 715
Cc1cc(Nc2nc(N[C@@H](C)c3ncc(F)cn3)ncc2Cl)n[nH]1 | 622
COc1ccc(-c2ccnc3nc(Cc4ccc(F)cc4)nn23)cc1 | 920
O=C(Cn1c(=O)oc2ccccc21)N1CC(n2cc(COCc3ccccc3)nn2)C1 | 773
CCCNC(=O)c1cc(=O)[nH]c2ccc(F)cc12 | 635
CCCCN(C)S(=O)(=O)c1cc(-c2nnc(C(C)C)o2)co1 | 984
CCn1nccc1C(=O)Nc1nc(-c2ccc(OC)cc2OC)cs1 | 926
CCN(Cc1cn(CC)nc1C)C(=O)CC1=C2CCCCC2N(C)C1=O (stereo not given) | 648
Cc1nc(N2CCOCC2)c2c(C(=O)NCCCc3ccccc3)c(C)oc2n1 | 805
Cc1cc(S(=O)(=O)N2CCC(n3cnnc3C3CC3)CC2)ccc1Cl | 784
Cc1ccc(Cn2cc(-c3ccncc3)cc2C(=O)NCc2cccnc2)cc1 | 581
O=c1c(Nc2ccc(F)c(F)c2)nc2ccncc2n1Cc1ccccc1 | 775
CC(C)c1cc(C(=O)NCc2ccc3c(c2)OCO3)nc2cc(-c3ccccn3)nn12 | 986
Cc1ccc(-c2nnc(-c3nn(C)c4c3CN(S(=O)(=O)c3ccccc3C)CC4)o2)cc1 | 1020
COc1cccc(-c2cc3n(n2)C(NCCc2cccs2)CNC3=O)c1 (stereo not given) | 838

Structure (SMILES) | RP-LC retention time [s]
O=C(c1cc(S(=O)(=O)N2CCCC(C(=O)N3CCN(c4ccccc4)CC3)C2)c[nH]1)N1CCCC1 (stereo not given) | 804
CCn1ccc(C(=O)Nc2cc(Cl)ccc2Cl)n1 | 1140
O=C(Nc1nccnc1C(=O)NC1CCCC1)c1ccccc1 | 934
CCn1cc(-c2ccc(C)cc2)cc1C(=O)N1CCC(C)CC1 | 1230
Cc1ccnc(NC(=O)C2CCN(S(=O)(=O)c3cc(-c4noc(C5CC5)n4)ccc3C)CC2)c1 | 811
C=Cc1ccc(Cn2nc3c(S(=O)(=O)N4CCN(c5ccc(F)cc5)CC4)cccn3c2=O)cc1 | 1010
Cc1ccc(N2CC(c3noc(-c4nccc5ccccc45)n3)CC2=O)cc1 (stereo not given) | 961
Cc1cc(-c2nnc(-c3ccc(F)cc3)o2)c(C)n1CC(=O)Nc1ccccc1F | 959
COc1ccccc1CNC(=O)c1cn(C)nc1S(=O)(=O)N1CCSCC1 | 847
O=C(CCc1c(-c2ccccc2)nc2ccccn12)Nc1ccc(Cl)cc1F | 715
Cc1nn(-c2ccc(C(=O)N3CCN(C(=O)c4ccco4)CC3)cc2)c2c1C(=O)CCC2 | 664
COc1ccccc1CNC(=O)c1ccc2c(c1)nc1n2CCN(Cc2ccccc2)C1=O | 789
CC1CCc2onc(C(=O)N(C)Cc3ccccc3)c2C1 (stereo not given) | 1020
COCc1cc(=O)n(CC(=O)Nc2cc(F)ccc2C)c(N)n1 | 627
CCc1ccc(CNC(=O)C2CCCN(C(=O)c3[nH]c(C)c(C(=O)OC(C)C)c3C)C2)cc1 (stereo not given) | 959
O=c1c2nc(-c3ccc(F)cc3)cn2ccn1-c1ccc2c(c1)CCC2 | 945
Cc1ccc2c(c1)C1(CCN(CCc3nc(-c4ccccc4)oc3C)CC1)OC(=O)N2 | 747
CC(=O)N1CCc2cc(N3CC(C(=O)Nc4ccc(C(F)(F)F)cc4)CC3=O)ccc21 (stereo not given) | 798
O=C(CCc1nc2ccccc2s1)NCC12CCCC=C1N(CC1CC1)C(=O)CC2 (stereo not given) | 863
COc1ccccc1NC(=O)N1CC(C)Oc2ccc(C)cc21 (stereo not given) | 1130
COc1ccc(C2CC(=O)c3cnc4c(c3C2)c(=O)n(C)c(=O)n4C)cc1 (stereo not given) | 913
Cc1nn(-c2ccccc2)c2c1N(CC(=O)NC(C)c1ccccc1)C(=O)CS2 (stereo not given) | 845

Structure (SMILES) | RP-LC retention time [s]
CCc1onc(C)c1C1CCCN1C(=O)Nc1ccc(OC)cc1OC (stereo not given) | 796
Cc1ccc(-c2nc3ccc(Br)cn3c2Nc2ccccc2C)cc1 | 892
Cc1nnc2ccc(N3CCC(C(=O)N4CCN(c5cccc(Cl)c5)CC4)CC3)nn12 | 860
COc1ccc(-n2c(CN3CCN(C(=O)NCc4ccco4)CC3)nc3cccnc32)cc1 | 617
CCc1noc([C@@H]2CC(F)(F)CN2C(=O)c2cnc[nH]2)n1 | 604
CCCn1c(=O)oc2cc(NC(=O)NCC(=O)OCC)ccc21 | 703
Cc1ccc(OCc2nnc(SCC(=O)Nc3nc(-c4ccccc4)c(C)s3)o2)cc1 | 1090
COCCNC(=O)CSc1cc(N2CCN(c3ccc(OC)cc3)CC2)ncn1 | 662
O=C(Cn1nc2c3cc(-c4ccccc4)nn3ccn2c1=O)N1CCCc2ccccc21 | 940
Cn1c(=O)c(N2CCC(NC(=O)NCCc3ccccc3)CC2)nc2ccccc21 | 857
CCOC(=O)c1ccc(NC(=O)c2ccc3c(c2)N(CC)C2CCCCN2C3=O)cc1 (stereo not given) | 957
CCCn1cc(-c2nc(-c3cc(OC)c(OC)c(OC)c3)no2)c(=O)c2ccccc21 | 798
Cc1cc(-c2ccc(NC(=O)c3cccs3)c(C)c2)ccc1NC(=O)c1ccsc1 | 878
Cc1nc(-c2cc3cccc(C)c3nc2N2CCN(c3ccc(F)cc3)CC2)no1 | 732
COc1cccc(-n2cc(C(=O)O)c3c2C(c2ccc(OC)c(OC)c2)CC(=O)N3)c1 (stereo not given) | 717
CCOC(=O)C1CCN(c2ncc(S(=O)(=O)c3ccccc3)c(N)n2)CC1 | 885
COC(=O)c1cc(C)nc2c1c(=O)n(Cc1ccc(Cl)cc1)c(=O)n2C | 1080
Cc1sc(NC(=O)c2ccco2)nc1-c1ccc2c(c1)NC(=O)CO2 | 770
COc1ccc(-c2noc(-c3cccn(CC(=O)Nc4cccc(SC)c4)c3=O)n2)cc1OC | 853
Cc1cc(-c2c(C)sc(C)c2S(=O)(=O)Nc2ccc(C(C)C)cc2)n[nH]1 | 1200
Clc1ccc(Nc2nnc(Cc3ccncc3)c3ccccc23)cc1 | 599

Reference: the METLIN SMRT retention time set (Domingo-Almenara et al. 2019)
